Where “and” joins values, the source holds several entries; their conditions need not be identical. Equal values may be shown once. Entries after “also recorded” stand apart in the source; their conditions may differ.
Legend:
[1] = test system: Staphylococcus aureus ATCC 6535; experiment: Microorganism count in 2% and 0.2% ester emulsions (Example 13); type: cell-based
Protocol: Both of the emulsions included egg-yolk phospholipide 1,2% and sterile water, in addition to ester. The emulsions were prepared aseptically, by emulsifying sterile-filtered ester with a sterilized dispersion of egg-yolk phospholipids.
Aliquots of these emulsions were diluted with phosphate buffer (0.01 M, pH=7.0), in the proportions of 1 and 100 in respective emulsions. Staphylococcus aureus ATCC 6535 was then added to the emulsions. The samples were then incubated at +37°C for 20 hours. The microorganism count was carried out after 1-5 minutes, 2 and 20 hours, in the manner described in microbiological literature. Parallel with the above experiments, a check was made on the phospholipid solution 1,2% and TSB (Tryptone soya broth), by adding Staphylococcus aureus ATCC 6535. The latter substrate was tested to ascertain whether the controlled microorganisms were viable. […] The starting concentration was about 5x10³. […] After 2 hours, the number of microorganisms was 0 and 10 respectively, and after 20 hours 0 and 0 respectively. In the samples containing 5-methyl-3-oxo-hexanoic acid ethyl ester with concentrations of 2% and 0.2%, the number of microorganisms per ml present after 1-5 minutes was 10⁴, after 2 hours 0 and 100 respectively, and after 20 hours 0 and 0 respec tively.

[2] = Cold storage of fat emulsion (Intralipid) with ester admixture: visual inspection, pH, mean particle size; type: physicochemical; conditions: for emulsion quality (oil droplets, creaming, oil separation), daily inspection: Example 5: mother concentrate in Intralipid 10%; for emulsion quality (oil droplets, creaming, oil separation), daily inspection / emulsion stability, daily visual inspection: +5°C; for emulsion quality (oil droplets, creaming, oil separation), daily inspection / emulsion quality, daily visual inspection / emulsion stability, daily visual inspection: 5 days; for emulsion quality, daily visual inspection: 5°C
Protocol: A so-called mother concentrate was prepared by dissolving 6 g of egg-yolk phospholipids in 40 g of 4-methyl-3-oxo-pentanoic acid ethyl ester at +60°C, while stirring. 34 g of 99% ethyl alcohol were then added to the solution, whereafter the solution was cooled to room temperature and dispensed into 20 ml glass flasks. Nitrogen gas was then bubbled through the liquid and the flasks then stoppered and capsuled. The bottles were then autoclaved at +120°C and at 118 kPa for 20 minutes. A 10% fat emulsion for parenteral nutrient administration (Intralipid^R retailed by KabiVitrum AB, Stockholm) was added to the preparation under strict asceptic conditions, to a 4-methyl-3-oxo-pentanoic acid ethyl ester concentration of 0.2, 1 and 3% respectively. The emulsion was shaken for 5 minutes in a shaking machine and then placed in a cold environment (+5°C). The emulsion was thereafter observed over a 5 day period, wherewith a daily inspection was carried out to assess the formation of oil droplets, creaming or oil separation. The assessment was made in comparison with a known emulsion for parenteral use (Intralipid^R 10%). […] Subsequent to 5 days storage, an analysis was made of the pH and mean particle size in a Coulter nanosizer. The following values were obtained:
(§1) A so-called mother concentrate produced by dissolving 6 g egg-yolk phospholipids in 40 g of 4-methyl-3-oxo-pentanoic acid-ethyl ester at +60°C, while stirring the system. 34 g of 99% ethyl alcohol were then added to the solution, whereafter the solution was cooled to room temperature and dispensed into 20 ml glass flasks. Nitrogen gas was perculated through the contents of the flasks, and the flasks subsequently stoppered and fitted with capsules. The flasks were then autoclaved at 120°C and 118 kPa over a period of 20 minutes. This preparation was added to a 20% fat emulsion (Intralipid^R) under strict aseptic conditions, such that the concentation of 4-methyl-3-oxo-pentanoic acid ethyl ester was 0.2 and 1 and 3% respectively. The emulsion was shaken for 5 minutes in a shaker and then placed in a cold environment (5°C). The emulsion was inspected over a period of 5 calender days, wherewith a visual inspection was carried out daily in order to ascertain the occurrence of any oil droplets that may form, creaming or oil separation. The assay was effected by comparison with a known emulsion for parenteral use (Intralipid^R 20%). […] The pH of the emulsion was measured after a 5 day storage period. The mean particle size was measured in a Coulter^R nanosizer. The following values were obtained:
as §1, with “prepara tion” for “preparation”, “10%” for “20%”, “10%).” for “20%).”, “obtained: […]” for “obtained:”

[3] = as above; type: physicochemical; conditions: for emulsion stability, daily visual inspection: Example 34: pure ester in 20 percent fat emulsion
[4] = Total parenteral nutrition (TPN) with ester as energy substitute in rats; conditions: 9 days
Protocol: Sprague-Dawley male rats weighing 180-190 g were sur­gically fitted with a central vein catheter protected by a saddle (Roos et al, 1981). Total parenteral nutrition (TPN) was administered in accordance with the following standard formula: Fat: 8 g/kg body weight and 24 hours Nitrogen: 1,2 g/kg body weight and 24 hours Total energy supplied: 1257 kJ/kg body weight and 24 hours Liquid: 300 ml/kg body weight and 24 hours The glucose to fat ratio was 70-30 energy percent. The energy percentage obtained from the energy substitutes during the test period corresponded to about 5% NPC. The TPN-mixture was obtained by mixing Vamin^R 14 (a solution of essential and non-essential amino acids for paren­teral nutrient administration, retailed by KabiVitrum AB) with no electrolytes, glucose solution 50% and Intralipid^R 20% in suitable proportions and adding adequate quantities of electrolytes, trace minerals and vitamins. Subsequent to infusing the rats continuously for one week (20 hours/day), the animals were divided randomly into three groups, with 6 animals in each group. The animals of one group were administered with the same TPN-formula as that previously mentioned (the reference group). […] The compounds were given in a dosage of 2 g/kg body weight and 24 hours in a yield corres­ponding to equivalent glucose energy quantities. In other respects, the TPN-program or formula was the same as that for the reference group. The experiment was then continued for a further 9 days, during which the weights of the animals were recorded daily and urine collected and frozen. At the end of the test period, the rats were killed by heart puncture while under a pentobarbital anesthetic and an autopsy was performed on the rat carcasses with microscopic examination. The body organs were sent to a laboratory for pathological assay.

[5] = Example 5: Intralipid 10%, 0.2% admix, after 5 days storage
[6] = Example 5: Intralipid 10%, 1% admix, after 5 days storage
[7] = Example 5: Intralipid 10%, 3% admix, after 5 days storage
[8] = Example 30: Intralipid 20%, 0.2% admix
[9] = Example 30: Intralipid 20%, 1% admix
[10] = Example 30: Intralipid 20%, 3% admix
[11] = Example 31: Intralipid 10%, 0.2% admix
[12] = Example 31: Intralipid 10%, 1% admix
[13] = Example 31: Intralipid 10%, 3% admix
[14] = Example 31: Intralipid 10%, 5% admix

SMILES: CCOC(=O)CC(=O)C(C)C [4-methyl-3-oxo-pentanoic acid ethyl ester]
- number of microorganisms ([1]; 0.2%, after 2 hours): 10 per ml
- number of microorganisms ([1]; 0.2%, after 20 hours): 0 per ml
- number of microorganisms ([1]; 2%, after 1-5 minutes, +37°C, starting concentration about 5x10³): 100 per ml
- number of microorganisms ([1]; 2%, after 2 hours): 0 per ml
- number of microorganisms ([1]; 2%, after 20 hours): 0 per ml
- Mean particle size (single readings, Coulter nanosizer) [2, 5]: 258 and 264 and 267 and 250
- Mean particle size, X [2, 5]: 261
- pH [2, 5]: 7.2
- Mean particle size (single readings, Coulter nanosizer) [2, 6]: 245 and 253 and 250 and 235 and 242
- Mean particle size, X [2, 6]: 246
- pH [2, 6]: 7.0
- Mean particle size (single readings, Coulter nanosizer) [2, 7]: 264 and 258 and 248 and 250
- Mean particle size, X [2, 7]: 258
- pH [2, 7]: 6.8
- emulsion quality (oil droplets, creaming, oil separation), daily inspection ([2]; 1% addition): had no affect on the quality
- emulsion quality (oil droplets, creaming, oil separation), daily inspection ([2]; 3% addition): fully acceptable, but deteriorated slowly during day 4 and 5
- Mean particle size (single readings, Coulter nanosizer) [2, 8]: 325 and 316 and 320 and 327
- Mean particle size, X [2, 8]: 323
- pH ([2]; Example 30: Intralipid 20%, 0.2% admix, after 5 day storage): 7.3
- Mean particle size (single readings, Coulter nanosizer) [2, 9]: 323 and 327 and 329 and 319 and 336
- Mean particle size, X [2, 9]: 326
- pH ([2]; Example 30: Intralipid 20%, 1% admix, after 5 day storage): 6.9
- Mean particle size (single readings, Coulter nanosizer) [2, 10]: 322 and 319 and 320 and 333
- Mean particle size, X [2, 10]: 323
- pH ([2]; Example 30: Intralipid 20%, 3% admix, after 5 day storage): 6.5
- emulsion quality, daily visual inspection ([2]; Example 30: mother concentrate in Intralipid 20%, 0.2% addition): No change in quality
- emulsion quality, daily visual inspection ([2]; Example 30: mother concentrate in Intralipid 20%, 1% addition): No change in quality
- emulsion quality, daily visual inspection ([2]; Example 30: mother concentrate in Intralipid 20%, 3-percent mixture): fully acceptable over the first 3 days
- Mean particle size (single readings, Coulter nanosizer) [2, 11]: 241 and 239 and 246
- Mean particle size, X [2, 11]: 241
- pH ([2]; Example 31: Intralipid 10%, 0.2% admix, after 5 day storage): 7.3
- Mean particle size (single readings, Coulter nanosizer) [2, 12]: 244 and 249 and 246 and 251
- Mean particle size, X [2, 12]: 247
- pH ([2]; Example 31: Intralipid 10%, 1% admix, after 5 day storage): 6.9
- Mean particle size (single readings, Coulter nanosizer) [2, 13]: 249 and 246 and 240 and 236 and 243
- Mean particle size, X [2, 13]: 243
- pH ([2]; Example 31: Intralipid 10%, 3% admix, after 5 day storage): 6.7
- Mean particle size (single readings, Coulter nanosizer) [2, 14]: 244 and 252 and 254
- Mean particle size, X [2, 14]: 251
- pH ([2]; Example 31: Intralipid 10%, 5% admix, after 5 day storage): 6.7
- emulsion quality, daily visual inspection ([2]; Example 31: mother concentrate in Intralipid 10%, 0.2% addition): No change in quality
- emulsion quality, daily visual inspection ([2]; Example 31: mother concentrate in Intralipid 10%, 1% addition): No change in quality
- emulsion quality, daily visual inspection ([2]; Example 31: mother concentrate in Intralipid 10%, 3% addition): No change in quality; also recorded: fully acceptable over the first 3 days
- pH ([2]; Example 34: 20 percent fat emulsion, 5% emulsion, end of 5-day period (reference emulsion pH=7.9)): 5.0
- emulsion stability, daily visual inspection ([2]; Example 34: pure ester in 10% fat emulsion (Intralipid), 0.2%): stable over the whole of the test period
- emulsion stability, daily visual inspection ([2]; Example 34: pure ester in 10% fat emulsion, 1%): stable over the whole of the test period
- emulsion stability, daily visual inspection ([2]; Example 34: pure ester in 10% fat emulsion, 3%): stable over the whole of the test period
- emulsion stability, daily visual inspection ([2]; Example 34: pure ester in 10% fat emulsion, 5%): stable over the whole of the test period; also recorded: stable over the first 2 days
- emulsion stability, daily visual inspection ([2]; Example 34: pure ester in 20 percent fat emulsion, 1% admixture): remained stable over the whole of the test period
- emulsion stability, daily visual inspection ([2]; Example 34: pure ester in 20 percent fat emulsion, 5% admixture): remained stable for 2 days
- emulsion quality (oil droplets, creaming, oil separation), daily inspection ([3]; Example 5: mother concentrate in Intralipid 10%, 0.3% addition, +5°C, 5 days): had no affect on the quality
- pH ([3]; Example 34: 20 percent fat emulsion, 3% emulsion, end of 5-day period (reference emulsion pH=7.9)): 5.6
- emulsion stability, daily visual inspection ([3]; 0.1% admixture, +5°C, 5 days): remained stable over the whole of the test period
- emulsion stability, daily visual inspection ([3]; 3% admixture, +5°C, 5 days): remained stable for four days
- toxicity at the dosages tested ([4]; 2 g/kg body weight and 24 hours): non-toxic
- average growth per day during the whole of the test period ([4]; ester 2 g/kg body weight and 24 hours in place of equivalent glucose energy): 3.7 ± 0.8 g
